Source: PubChem BioAssay (NCI)
Where “and” joins values, the source holds several entries; their conditions need not be identical. Identical values can stand only once.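 Five concentrations, 48 hours, 96-well plates. At the GI50, growth is halved. TGI is the concentration that stops growth completely.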

Experiments:
Assay in all cases: NCI anticancer screen, dose series, 48 h
MDA-MB-231 breast = system: MDA-MB-231 breast
MDA-MB-435 = system: MDA-MB-435
NCI/ADR-RES ovarian = system: NCI/ADR-RES ovarian
NCI-H460 lung = system: NCI-H460 lung
K-562 leukemia = system: K-562 leukemia
U251 CNS = system: U251 CNS
HT29 colon = system: HT29 colon
SF-268 CNS = system: SF-268 CNS
SNB-75 CNS = system: SNB-75 CNS
MALME-3M melanoma = system: MALME-3M melanoma
UACC-62 melanoma = system: UACC-62 melanoma
KM12 colon = system: KM12 colon
OVCAR-8 ovarian = system: OVCAR-8 ovarian
M14 melanoma = system: M14 melanoma
OVCAR-5 ovarian = system: OVCAR-5 ovarian
A549 NSCLC = system: A549 NSCLC
HCT-15 colon = system: HCT-15 colon
SK-MEL-28 melanoma = system: SK-MEL-28 melanoma
LOX IMVI melanoma = system: LOX IMVI melanoma
SF-539 CNS = system: SF-539 CNS
DU-145 prostate = system: DU-145 prostate
TK-10 renal = system: TK-10 renal
A498 renal = system: A498 renal
UACC-257 melanoma = system: UACC-257 melanoma
PC-3 prostate = system: PC-3 prostate
SK-OV-3 ovarian = system: SK-OV-3 ovarian
HCC-2998 colon = system: HCC-2998 colon
ACHN renal = system: ACHN renal
RPMI-8226 leukemia = system: RPMI-8226 leukemia
HOP-92 NSCLC = system: HOP-92 NSCLC
COLO 205 colon = system: COLO 205 colon
SW-620 colon = system: SW-620 colon
CCRF-CEM leukemia = system: CCRF-CEM leukemia
CAKI-1 renal = system: CAKI-1 renal
SK-MEL-5 melanoma = system: SK-MEL-5 melanoma
NCI-H522 lung = system: NCI-H522 lung
RXF 393 renal = system: RXF 393 renal
SK-MEL-2 melanoma = system: SK-MEL-2 melanoma
T-47D breast = system: T-47D breast
SF-295 CNS = system: SF-295 CNS
BT-549 breast = system: BT-549 breast
UO-31 renal = system: UO-31 renal
HL-60(TB) leukemia = system: HL-60(TB) leukemia
NCI-H226 lung = system: NCI-H226 lung

Cc1nc(Nc2ncc(C(=O)Nc3c(C)cccc3Cl)s2)cc(N2CCN(CCO)CC2)n1
GI50 (MDA-MB-231 breast): 19.7 nM [middle of 4 runs]
GI50 (MDA-MB-435): 5.7 µM [middle of 4 runs]
GI50 (NCI/ADR-RES ovarian): 3.2 µM [middle of 4 runs]
GI50 (NCI-H460 lung): 8.34 µM [middle of 4 runs]
GI50 (K-562 leukemia): < 10 nM and 2 nM
GI50 (U251 CNS): 3.17 µM [middle of 4 runs]
GI50 (HT29 colon): 19.7 nM and 19.3 nM and 27.2 nM
GI50 (SF-268 CNS): 70.4 nM [middle of 4 runs]
GI50 (SNB-75 CNS): < 10 nM and 4.68 nM and < 11.1 nM
TGI (SNB-75 CNS): 25.7 nM and 56.3 nM and 58.7 nM
GI50 (MALME-3M melanoma): 6.6 µM [middle of 4 runs]
GI50 (UACC-62 melanoma): 5.69 µM [middle of 4 runs]
GI50 (KM12 colon): 7.66 µM [middle of 4 runs]
GI50 (OVCAR-8 ovarian): 55.8 nM [middle of 4 runs]
GI50 (M14 melanoma): 3.51 µM [middle of 4 runs]
GI50 (OVCAR-5 ovarian): 38.1 nM [middle of 4 runs]
GI50 (A549 NSCLC): 49.9 nM [middle of 4 runs]
GI50 (HCT-15 colon): 792 nM [middle of 4 runs]
TGI (SK-MEL-28 melanoma): 29000 nM and > 10000 nM and 20000 nM
GI50 (LOX IMVI melanoma): 14.2 nM [middle of 4 runs]
GI50 (SF-539 CNS): 53.3 nM [middle of 4 runs]
GI50 (DU-145 prostate): 158 nM [middle of 4 runs]
TGI (DU-145 prostate): > 10000 nM and 20000 nM and 13500 nM
GI50 (TK-10 renal): 22.2 nM and 10.9 nM and 8.43 nM

COc1ccc2nc3cc(Cl)ccc3c(NCCNc3c4ccc(Cl)cc4nc4ccc(OC)cc34)c2c1
GI50 (A498 renal): 1800 nM
TGI (A498 renal): 3360 nM
GI50 (UACC-257 melanoma): 2060 nM
TGI (UACC-257 melanoma): 3690 nM
GI50 (PC-3 prostate): 1830 nM
TGI (PC-3 prostate): 3450 nM
GI50 (MDA-MB-435): 1760 nM
TGI (MDA-MB-435): 3210 nM
GI50 (U251 CNS): 1770 nM
TGI (U251 CNS): 3280 nM
GI50 (SK-OV-3 ovarian): 1730 nM
TGI (SK-OV-3 ovarian): 3130 nM
GI50 (HCC-2998 colon): 1790 nM
TGI (HCC-2998 colon): 3280 nM
GI50 (ACHN renal): 1600 nM
TGI (ACHN renal): 3110 nM
GI50 (RPMI-8226 leukemia): 2040 nM
TGI (RPMI-8226 leukemia): 4590 nM
GI50 (HOP-92 NSCLC): 2010 nM
TGI (HOP-92 NSCLC): 3510 nM
GI50 (COLO 205 colon): 1640 nM
TGI (COLO 205 colon): 3390 nM
GI50 (SW-620 colon): 1100 nM
TGI (SW-620 colon): 2980 nM
GI50 (CCRF-CEM leukemia): 2190 nM
TGI (CCRF-CEM leukemia): 6680 nM
GI50 (MALME-3M melanoma): 2070 nM
TGI (MALME-3M melanoma): 3760 nM
GI50 (M14 melanoma): 1960 nM
TGI (M14 melanoma): 3580 nM
GI50 (CAKI-1 renal): 1720 nM
TGI (CAKI-1 renal): 3180 nM
GI50 (SK-MEL-5 melanoma): 1810 nM
TGI (SK-MEL-5 melanoma): 3270 nM
GI50 (NCI-H522 lung): 1720 nM
TGI (NCI-H522 lung): 3230 nM
GI50 (RXF 393 renal): 1550 nM
TGI (RXF 393 renal): 2920 nM
GI50 (SK-MEL-28 melanoma): 1860 nM
TGI (SK-MEL-28 melanoma): 3400 nM
GI50 (SK-MEL-2 melanoma): 1810 nM
TGI (SK-MEL-2 melanoma): 3500 nM
GI50 (DU-145 prostate): 1680 nM
TGI (DU-145 prostate): 3080 nM
GI50 (T-47D breast): 1890 nM
TGI (T-47D breast): 3940 nM
GI50 (TK-10 renal): 1970 nM
TGI (TK-10 renal): 3420 nM

N=C(N)c1ccc(-c2ccc(-c3ccc(Cl)cc3Cl)s2)cc1
GI50 (SF-295 CNS): 1770 nM
TGI (SF-295 CNS): 3190 nM
GI50 (ACHN renal): 1700 nM
TGI (ACHN renal): 3070 nM
GI50 (HOP-92 NSCLC): 1580 nM
TGI (HOP-92 NSCLC): 3170 nM
GI50 (BT-549 breast): 2180 nM
TGI (BT-549 breast): 6620 nM
GI50 (MALME-3M melanoma): 1740 nM
TGI (MALME-3M melanoma): 3290 nM
GI50 (UACC-62 melanoma): 1730 nM
TGI (UACC-62 melanoma): 3190 nM
GI50 (UO-31 renal): 1580 nM
TGI (UO-31 renal): 3000 nM
GI50 (OVCAR-5 ovarian): 1790 nM
TGI (OVCAR-5 ovarian): 3290 nM
GI50 (HL-60(TB) leukemia): 1970 nM
TGI (HL-60(TB) leukemia): 4490 nM
GI50 (DU-145 prostate): 1790 nM
TGI (DU-145 prostate): 3190 nM

N=C(N)c1ccc(-c2ccc(-c3ccc(Cl)c(Cl)c3)s2)nc1
GI50 (UACC-257 melanoma): 2140 nM
TGI (UACC-257 melanoma): 4770 nM
GI50 (SK-OV-3 ovarian): 8060 nM
TGI (SK-OV-3 ovarian): 31800 nM
GI50 (BT-549 breast): 3180 nM
TGI (BT-549 breast): 31600 nM
GI50 (NCI-H226 lung): 1940 nM
TGI (NCI-H226 lung): 4630 nM
GI50 (HL-60(TB) leukemia): 1890 nM
TGI (HL-60(TB) leukemia): 4390 nM
GI50 (SK-MEL-2 melanoma): 3430 nM
TGI (SK-MEL-2 melanoma): 15200 nM
